Laboratory results published in patent publication US12428420B2, “Tricyclic heterocycles as FGFR inhibitors” (Incyte Corporation, priority 2021, dated 2025).
pIC50: −log10 of the molar value.

Legend:
[1] = test system: RT-112/84 cell line; test: Luminescent Viability Assay (CellTiter-Glo); assay type: cell-based; conditions: Homo sapiens, RT112/84, 72 h, RT-112/84 cell line (bladder, FGFR3-TACC3); 3 days
Description: RT112 cells (cell lines and genetic profiles further detailed in Table 2) were purchased from ATCC (Manassas, VA) and maintained in RPMI, 10% FBS (Gibco/Life Technologies). To measure the effect of test compounds on the viability of cells, the cells were plated with RPMI 10% FBS (5×10^3 cells/well/in 50 μL) into black 96-well Greiner polystyrene in the presence or absence of 50 μL of a concentration range of test compounds. After 3 days, 100 μL of CellTiter-Glo Reagent (Promega) was added. Luminescence was read with a TopCount (PerkinElmer). IC50 determination was performed by fitting the curve of percent inhibition versus the log of the inhibitor concentration using the GraphPad Prism 5.0 software.

[2] = target: wild-type un-phosphorylated FGFR3 protein (Homo sapiens, UniProt P22607); test: FGFR Enzymatic Assay (FRET peptide phosphorylation); assay type: biochemical; conditions: pre-incubated for 4 hours
wild-type un-phosphorylated FGFR3 protein, sequence (P22607 23-806): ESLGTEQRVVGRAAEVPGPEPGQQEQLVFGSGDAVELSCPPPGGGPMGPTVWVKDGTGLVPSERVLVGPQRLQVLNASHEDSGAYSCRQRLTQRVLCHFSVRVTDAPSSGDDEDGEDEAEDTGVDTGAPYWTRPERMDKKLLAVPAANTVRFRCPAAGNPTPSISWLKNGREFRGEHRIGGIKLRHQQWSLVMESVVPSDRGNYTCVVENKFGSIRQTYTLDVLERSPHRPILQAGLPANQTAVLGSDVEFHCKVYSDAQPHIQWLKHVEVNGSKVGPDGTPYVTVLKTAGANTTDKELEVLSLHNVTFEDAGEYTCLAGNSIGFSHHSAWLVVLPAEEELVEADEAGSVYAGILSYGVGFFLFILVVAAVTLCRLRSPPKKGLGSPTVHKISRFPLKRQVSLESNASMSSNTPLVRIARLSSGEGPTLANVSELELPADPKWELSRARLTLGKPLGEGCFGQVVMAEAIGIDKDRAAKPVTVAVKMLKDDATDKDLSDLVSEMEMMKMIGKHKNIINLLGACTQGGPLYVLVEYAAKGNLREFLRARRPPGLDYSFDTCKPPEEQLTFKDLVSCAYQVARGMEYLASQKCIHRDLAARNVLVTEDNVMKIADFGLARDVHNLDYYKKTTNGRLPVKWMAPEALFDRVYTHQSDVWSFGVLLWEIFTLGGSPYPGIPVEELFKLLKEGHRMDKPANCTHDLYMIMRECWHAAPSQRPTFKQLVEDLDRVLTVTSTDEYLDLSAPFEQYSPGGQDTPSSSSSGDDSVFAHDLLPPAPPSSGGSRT
Description: The inhibitor potency of the exemplified compounds was determined in an enzyme discontinuous assay that measures peptide phosphorylation using FRET measurements to detect product formation. Inhibitors were serially diluted in DMSO and a volume of 0.2 μL was transferred to the wells of a 384-well plate. A 5 μL/well volume of enzyme isoforms of FGFR (-1, -2, -3 wild-type and mutant isoforms, -4) including phosphorylated and un-phosphorylated proteins diluted in assay buffer (50 mM HEPES, 10 mM MgCl2, 1 mM EGTA, 0.01% Tween-20, 5 mM DTT, pH 7.5) was added to the plate and pre-incubated with inhibitor for 5 to 15 minutes at ambient temperature. Appropriate controls (enzyme blank and enzyme with no inhibitor) were included on the plate. The reaction was initiated by the addition of a 5 μL/well volume containing both biotinylated [sequence] peptide substrate (SEQ ID NO: 1) and ATP in assay buffer. The 10 μL/well reaction concentration of the peptide substrate was 500 nM whereas the ATP concentration was maintained near or below the ATP Km. The ATP Km values were pre-determined in a separate series of experiments. The reaction plate was incubated at 25° C. for 1 hr and the reactions were ended with the addition of 5 μL/well of quench solution (50 mM Tris, 150 mM NaCl, 0.5 mg/mL BSA, pH 7.8; 45 mM EDTA, 600 nM staurosporin, with Perkin Elmer Lance Reagents at 3.75 nM Eu-antibody PY20 and 180 nM APC-Streptavidin). The plate was allowed to equilibrate for ˜10 minutes at ambient temperature before scanning on a PheraStar plate reader (BMG Labtech) instrument.
Either GraphPad prism or XLfit was used to analyze the data. The IC50 values were derived by fitting the data to a four parameter logistic equation producing a sigmoidal dose-response curve with a variable Hill coefficient. Prism equation: Y=Bottom+(Top−Bottom)/(1+10^((Log IC50−X)*Hill slope)); XLfit equation: Y=(A+((B−A)/(1+((X/C)^D)))) where X is the logarithm of inhibitor concentration and Y is the response.

pIC50 [2] | SMILES | pIC50 [1]
8.30 to 9.00 | COCC(=O)N1CC(Cn2cc(-c3cnc4ccn5c(CO)c(-c6c(Cl)cccc6Cl)nc5c4c3)cn2)C1 [Example 27, 1-(3-((4-(2-(2,6-Dichlorophenyl)-3-(hydroxymethyl)imidazo[2,1-f][1,6]naphthyridin-9-yl)-1H-pyrazol-1-yl)methyl)azetidin-1-yl)-2-methoxyethan-1-one] | 7.30 to 8.00
> 9.00 | CS(=O)(=O)CCn1cc(-c2cnc3ccn4c(C(F)F)c(-c5c(Cl)cccc5Cl)nc4c3c2)cn1 [Example 28, 2-(2,6-Dichlorophenyl)-3-(difluoromethyl)-9-(1-(2-(methylsulfonyl)ethyl)-1H-pyrazol-4-yl)imidazo[2,1-f][1,6]naphthyridine] | > 8.00
> 9.00 | N#CCn1cc(-c2cnc3ccn4c(C(F)F)c(-c5c(Cl)cccc5Cl)nc4c3c2)cn1 [Example 29, 2-(4-(2-(2,6-Dichlorophenyl)-3-(difluoromethyl)imidazo[2,1-f][1,6]naphthyridin-9-yl)-1H-pyrazol-1-yl)acetonitrile] | > 8.00
> 9.00 | FC(F)c1c(-c2c(Cl)cccc2Cl)nc2c3cc(-c4cnn(C5CCOCC5)c4)cnc3ccn12 [Example 30, 2-(2,6-Dichlorophenyl)-3-(difluoromethyl)-9-(1-(tetrahydro-2H-pyran-4-yl)-1H-pyrazol-4-yl)imidazo[2,1-J][1,6]naphthyridine] | > 8.00
> 9.00 | OCCn1cc(-c2cnc3ccn4c(C(F)F)c(-c5c(Cl)cccc5Cl)nc4c3c2)cn1 [Example 31, 2-(4-(2-(2,6-Dichlorophenyl)-3-(difluoromethyl)imidazo[2,1-f][1,6]naphthyridin-9-yl)-1H-pyrazol-1-yl)ethan-1-ol] | > 8.00
> 9.00 | CC(C#N)n1cc(-c2cnc3ccn4c(C(F)F)c(-c5c(Cl)cccc5Cl)nc4c3c2)cn1 (stereo not drawn) [Example 32, 2-(4-(2-(2,6-Dichlorophenyl)-3-(difluoromethyl)imidazo[2,1-f][1,6]naphthyridin-9-yl)-1H-pyrazol-1-yl)propanenitrile] | > 8.00
> 9.00 | CC(C)(C(N)=O)n1cc(-c2cnc3ccn4c(C(F)F)c(-c5c(Cl)cccc5Cl)nc4c3c2)cn1 [Example 33, 2-(4-(2-(2,6-Dichlorophenyl)-3-(difluoromethyl)imidazo[2,1-f][1,6]naphthyridin-9-yl)-1H-pyrazol-1-yl)-2-methylpropanamide] | > 8.00
8.30 to 9.00 | CN1CCC(n2cc(-c3cnc4ccn5c(CCO)c(-c6c(Cl)cccc6Cl)nc5c4c3)cn2)CC1 [Example 34, 2-(2-(2,6-Dichlorophenyl)-9-(1-(1-methylpiperidin-4-yl)-1H-pyrazol-4-yl)imidazo[2,1-f][1,6]naphthyridin-3-yl)ethan-1-ol] | 7.30 to 8.00
8.30 to 9.00 | Nc1c(-c2c(Cl)cccc2Cl)nc2c3cc(-c4cnn(C5CCOCC5)c4)cnc3ccn12 [Example 35, 2-(2,6-Dichlorophenyl)-9-(1-(tetrahydro-2H-pyran-4-yl)-1H-pyrazol-4-yl)imidazo[2,1-f][1,6]naphthyridin-3-amine] | 7.30 to 8.00
